# Reference: patent US7956077B2, “2-{-3,′2-(phenyl)-oxazol-4-ylmethoxyl-cyclohexyl methoxy}-propionic acid derivatives used as peroxisome proliferator-activated receptor (PPAR) ligands for the treatment of hyperlipidemia and diabetes” (Sanofi-Aventis Deutschland GmbH, priority 2004, dated 2011)
# Columns and labels:
# [1] = target: T1, human PPARgamma (Homo sapiens, UniProt P37231); assay: Cellular PPARgamma assay (transiently transfected HEK cells, luciferase reporter); assay type: cell-based; conditions: HEK cells transiently transfected with GAL4-humanPPARgammaLBD, 48 h incubation
# T1 construct: human PPARgamma receptor (amino acids 1152-Y475); expressed in transfected cells; host or cells: HEK cells, transiently transfected with pcDNA3-GAL4-humanPPARgammaLBD
# T1 sequence (P37231 182-477 isoform P37231-2 limits assumed): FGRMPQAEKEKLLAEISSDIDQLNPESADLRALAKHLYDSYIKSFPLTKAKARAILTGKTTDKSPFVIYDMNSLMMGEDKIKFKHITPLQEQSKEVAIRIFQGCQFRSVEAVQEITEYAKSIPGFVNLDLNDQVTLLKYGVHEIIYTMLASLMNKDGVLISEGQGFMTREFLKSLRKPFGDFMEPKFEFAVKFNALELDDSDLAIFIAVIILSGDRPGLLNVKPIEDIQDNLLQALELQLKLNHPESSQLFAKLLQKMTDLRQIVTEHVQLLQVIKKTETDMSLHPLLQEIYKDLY
# Description: Determination of EC50 Values of PPAR Agonists in the Cellular PPARgamma Assay
# A transient transfection system is employed to determine the cellular PPARgamma activity of PPAR agonists. It is based on the use of a luciferase reporter plasmid (pGL3basic-5×GAL4-TK) and of a PPARgamma expression plasmid (pcDNA3-GAL4-humanPPARgammaLBD). Both plasmids are transiently transfected into human mbryonic kidney cells (HEK cells). There is then expression in these cells of the usion protein GAL4-humanPPARgammaLBD which binds to the GAL4 binding sites of he reporter plasmid. In the presence of a PPARgamma-active ligand, the activated usion protein GAL4-humanPPARgammaLBD induces expression of the luciferase reporter gene, which can be detected in the form of a chemiluminescence signal after addition of a luciferase substrate. As a difference from the stably transfected PPARalpha reporter cell line, in the cellular PPARgamma assay the two components (luciferase reporter plasmid and PPARgamma expression plasmid) are transiently transfected into HEK cells because stable and permanent expression of the PPARgamma fusion protein is cytotoxic.
# Construction of the Plasmids
# The luciferase reporter plasmid pGL3basic-5×GAL4-TK is based on the vector pGL3basic from Promega. The reporter plasmid is prepared by cloning five binding sites of the yeast transcription factor GAL4 (each binding site with the sequence 5′-CTCGGAGGACAGTACTCCG-3′), together with a 160 bp-long thymidine kinase promoter section (Genbank Accession # AF027128) 5′-upstream into pGL3basic. 3′-downstream of the thymidine kinase promoter is the complete luciferase gene from Photinus pyralis (Genbank Accession # M15077), which is already a constituent of the plasmid pGL3basic used. The cloning and sequencing of the reporter plasmid pGL3basic-5×GAL4-TK took place in analogy to the description in Sambrook J. et. al. (Molecular cloning, Cold Spring Harbor Laboratory Press, 1989).
# The PPARgamma expression plasmid pcDNA3-GAL4-humanPPARgammaLBD was prepared by first cloning the cDNA coding for amino acids 1-147 of the yeast transcription factor GAL4 (Genbank Accession # P04386) into the plasmid pcDNA3 (from Invitrogen) 3′-downstream of the cytomegalovirus promoter. Subsequently, the cDNA of the ligand-binding domain (LBD) of the human PPARgamma receptor (amino acids 1152-Y475; Accession # g1480099) 3′-downstream of the GAL4 DNA binding domain was cloned. Cloning and sequencing of the PPARgamma expression plasmid pcDNA3-GAL4-humanPPARgammaLBD again took place in analogy to the description in Sambrook J. et. al. (Molecular cloning, Cold Spring Harbor Laboratory Press, 1989). Besides the luciferase reporter plasmid pGL3basic-5×GAL4-TK and the PPARgamma expression plasmid pcDNA3-GAL4-humanPPARgammaLBD, also used for the cellular PPARgamma assay are the reference plasmid pRL-CMV (from Promega) and the plasmid pBluescript SK(+) from Stratagene. All four plasmids were prepared using a plasmid preparation kit from Qiagen, which ensured a plasmid quality with a minimal endotoxin content, before transfection into HEK cells.
# The activity of PPARgamma agonists is determined in a 4-day assay which is described below. Before the transfection, HEK cells are cultivated in DMEM medium (#41965-039, Invitrogen) which is mixed with the following additions: 10% FCS (#16000-044, Invitrogen), 1% penicillin-streptomycin solution (#15140-122, Invitrogen) and 2 mM L-glutamine (#25030-024, Invitrogen).
# Firstly, solution A, a transfection mixture which contains all four plasmids previously described in addition to DMEM medium, is prepared. […]
# [2] = target: T2, human PPARalpha (Homo sapiens, UniProt Q07869); assay: Cellular PPARalpha assay (stably transfected HEK luciferase reporter cell line); assay type: cell-based; conditions: PPARalpha reporter cell line (HEK, GR-GAL4-humanPPARalpha-LBD), 24 h incubation
# T2 construct: human PPARalpha receptor (amino acids S167-Y468); expressed in transfected cells; host or cells: HEK cells, stably transfected (pcDNA3 construct)
# T2 sequence (Q07869 167-468): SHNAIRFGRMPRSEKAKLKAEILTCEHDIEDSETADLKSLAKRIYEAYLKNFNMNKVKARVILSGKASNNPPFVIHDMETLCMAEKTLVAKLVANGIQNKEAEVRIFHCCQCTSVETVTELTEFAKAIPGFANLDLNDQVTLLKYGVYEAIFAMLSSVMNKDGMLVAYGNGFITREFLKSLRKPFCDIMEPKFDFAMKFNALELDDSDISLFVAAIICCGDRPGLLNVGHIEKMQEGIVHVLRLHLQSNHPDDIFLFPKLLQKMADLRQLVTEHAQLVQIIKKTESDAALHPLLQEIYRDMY
# Description: Determination of EC50 Values of PPAR Agonists in the Cellular PPARalpha Assay
# The potency of substances which bind to human PPARalpha and activate it in an agonistic manner is analyzed using a stably transfected HEK cell line (HEK=human embryo kidney) which is referred to here as PPARalpha reporter cell line. It contains two genetic elements, a luciferase reporter element (pdeltaM-GAL4-Luc-Zeo) and a PPARalpha fusion protein (GR-GAL4-humanPPARalpha-LBD) which mediates expression of the luciferase reporter element depending on a PPARalpha ligand. The stably and constitutively expressed fusion protein GR-GAL4-humanPPARalpha-LBD binds in the cell nucleus of the PPARalpha reporter cell line via the GAL4 protein portion to the GAL4 DNA binding motifs 5′-upstream of the luciferase reporter element which is stably integrated in the genome of the cell line. There is only little expression of the luciferase reporter gene without addition of a PPARalpha ligand if fatty acid-depleted fetal calf serum (cs-FCS) is used in the assay. PPARalpha ligands bind and activate the PPARalpha fusion protein and thereby bring about expression of the luciferase reporter gene. The luciferase which is formed can be detected by means of chemiluminescence via an appropriate substrate.
# Construction of the Cell Line
# The PPARalpha reporter cell line was prepared in two steps. Firstly, the luciferase reporter element was constructed and stably transfected into HEK cells. For this purpose, five binding sites of the yeast transcription factor GAL4 (in each case 5′-CGGAGTACTGTCCTCCGAG-3′) were cloned in 5′-upstream of a 68 bp-long minimal MMTV promoter (Genbank Accession # V01175). The minimal MMTV promoter section contains a CCAAT box and a TATA element in order to enable efficient transcription by RNA polymerase II. The cloning and sequencing of the GAL4-MMTV construct took place in analogy to the description of Sambrook J. et. al. (Molecular cloning, Cold Spring Harbor Laboratory Press, 1989). Then the complete Photinus pyralis luciferase gene (Genbank Accession # M15077) was cloned in 3′-downstream of the GAL4-MMTV element. After sequencing, the luciferase reporter element consisting of five GAL4 binding sites, MMTV promoter and luciferase gene was subcloned into a plasmid which confers zeozin resistance in order to obtain the plasmid pdeltaM-GAL4-Luc-Zeo. This vector was transfected into HEK cells in accordance with the statements in Ausubel, F. M. et al. (Current protocols in molecular biology, Vol. 1-3, John Wiley & Sons, Inc., 1995).
# In a second step, the PPARalpha fusion protein (GR-GAL4-humanPPARalpha-LBD) was introduced into the stable cell clone described. For this purpose, initially the cDNA coding for the N-terminal 76 amino acids of the glucocorticoid receptor (Genbank Accession # P04150) was linked to the cDNA section coding for amino acids 1-147 of the yeast transcription factor GAL4 (Genbank Accession # P04386). The cDNA of the ligand-binding domain of the human PPARalpha receptor (amino acids S167-Y468; Genbank Accession # S74349) was cloned in at the 3′ end of this GR-GAL4 construct. The fusion construct prepared in this way (GR-GAL4-humanPPARalpha-LBD) was subcloned into the plasmid pcDNA3 (from Invitrogen) in order to enable constitutive expression therein by the cytomegalovirus promoter. This plasmid was linearized with a restriction endonuclease and stably transfected into the previously described cell clone containing the luciferase reporter element. The finished PPARalpha reporter cell line which contains a luciferase reporter element and constitutively expresses the PPARalpha fusion protein (GR-GAL4-humanPPARalpha-LBD) was isolated by selection with zeozin (0.5 mg/ml) and G418 (0.5 mg/ml).
# The activity of PPARalpha agonists is determined in a 3-day assay which is described below: […]
SMILES,EC50 [1],EC50 [2]
"Cc1oc(-c2ccc3ccccc3c2)nc1CO[C@H]1CCC[C@@H](COC(C)(Cc2ccccc2)C(=O)O)C1 (mixture of isomers) [Example 21, 2-Methyl-2-{(1R,3S)-3-[5-methyl-2-(naphth-2-yl)oxazol-4-ylmethoxy]-cyclohexyimethoxy}-3-phenylpropionic acid]",600 nM,5.8 nM
Cc1oc(-c2ccc(F)cc2)nc1COC1CCCC(COC(C)(C)C(=O)O)C1 (stereo not drawn) [**],> 10000 nM,4.5 nM
"CCc1oc(-c2ccc(C)cc2)nc1CO[C@H]1CCC[C@@H](COC(C)(C)C(=O)O)C1 [Example 2, 2-[(1R,3S)-3-(5-Ethyl-2-p-tolyloxazol-4-ylmethoxy)cyclohexylmethoxy]-2-methylpropionic acid]",2900 nM,3.5 nM
"Cc1oc(-c2ccc3ccccc3c2)nc1CO[C@H]1CCC[C@@H](COC(C)(C)C(=O)O)C1 [Example 7, 2-Methyl-2-{(1R,3S)-3-[5-methyl-2-(naphth-2-yl)oxazol-4-ylmethoxy]cyclo-hexylmethoxy}propionic acid]",2600 nM,1.2 nM

# Continued by falling EC50 [1], values first:
EC50 [1],EC50 [2],SMILES
1500 nM,12 nM,"CCc1oc(-c2cccc(C(F)(F)F)c2)nc1CO[C@H]1CCC[C@@H](COC(C)(C)C(=O)O)C1 [Example 5, 2-{(1R,3S)-3-[5-Ethyl-2-(3-trifluoromethylphenyl)oxazol-4-ylmethoxy]cyclo-hexylmethoxy}-2-methylpropionic acid]"
1100 nM,2 nM,"CCc1oc(-c2ccc3ccccc3c2)nc1CO[C@H]1CCC[C@@H](COC(C)(C)C(=O)O)C1 [Example 4, 2-{(1R,3S)-3-[5-Ethyl-2-(napth-2-yl)oxazol-4-ylmethoxy]cyclohexylmethoxy}-2-methylpropionic acid]"
930 nM,45 nM,"CCc1oc(-c2cccc(OC)c2)nc1CO[C@H]1CCC[C@@H](COC(C)(C)C(=O)O)C1 [Example 1, 2-{(1R,3S)-3-[5-ethyl-2-(3-methoxyphenyl)oxazol-4-ylmethoxy]cyclohexylmethoxy}-2-methylpropionic acid]"
670 nM,19 nM,"CCc1oc(-c2ccc(CC(C)C)cc2)nc1CO[C@H]1CCC[C@@H](COC(C)(C)C(=O)O)C1 [Example 3, 2-{(1R,3S)-3-[5-Ethyl-2-(4-isobutylphenyl)-oxazol-4-ylmethoxy]cyclohexylmethoxy}-2-methylpropionic acid]"
390 nM,320 nM,"COc1cccc(-c2nc(CO[C@H]3CCC[C@@H](COC(C)(C)C(=O)O)C3)c(C(C)C)o2)c1 [Example 9, 2-{(1R,3S)-3-[5-lsopropyl-2-(3-methoxypheny)oxazol-4-ylmethoxy]cyclo-hexylmethoxy}-2-methyl propionic acid]"
